For the test, the target named is T1, GSK3β (Homo sapiens, UniProt P49841).
T1 construct: gene GSK3B
The test is described as follows: ADP-Glo kinase assay with GSK3β, GSK3β substrate and […] ATP. It counts as biochemical. (In general: ADP-Glo turns the ADP formed in a reaction into a luminescent signal.)

Each structure is given as a SMILES string. pIC50: −log10 of the molar value.

One may read the pIC50 as −log10 of the IC50, conventionally taken in molar units. Read a low pIC50 as a high IC50.

T1 sequence (P49841 whole entry): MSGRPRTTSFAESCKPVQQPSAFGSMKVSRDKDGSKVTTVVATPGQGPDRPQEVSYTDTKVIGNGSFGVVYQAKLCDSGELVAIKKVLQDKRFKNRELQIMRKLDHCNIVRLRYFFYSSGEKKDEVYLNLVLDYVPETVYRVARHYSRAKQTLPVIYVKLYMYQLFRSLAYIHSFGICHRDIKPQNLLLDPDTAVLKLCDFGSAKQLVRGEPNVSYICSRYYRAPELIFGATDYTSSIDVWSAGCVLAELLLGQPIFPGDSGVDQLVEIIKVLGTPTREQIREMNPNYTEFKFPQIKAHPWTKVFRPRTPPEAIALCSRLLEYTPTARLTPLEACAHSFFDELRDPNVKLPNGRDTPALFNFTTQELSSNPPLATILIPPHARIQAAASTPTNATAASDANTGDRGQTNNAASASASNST

`COc1cc(O)c2c(c1)oc(=O)c1c3cc(O)c(O)cc3oc21` [wedelolactone]: the pIC50 was 4.66.

Source of the values: paper PMC4997609, “Wedelolactone enhances osteoblastogenesis by regulating Wnt/β-catenin signaling pathway but suppresses osteoclastogenesis by NF-κB/c-fos/NFATc1 pathway” (Scientific Reports, 2016).
